Results: article PMC11040670, “Mechanistic and Kinetic Insights into Cellular Uptake of Biomimetic Dinitrosyl Iron Complexes and Intracellular Delivery of NO for Activation of Cytoprotective HO-1” (JACS Au, 2024)

Assays:
MSC/N2a/HCEC = experiment: Cell viability (CCK-8) of MSC/N2a/HCEC treated with DNICs; format: cell-based; details: 24 h; for effect on cell viability: N2a/HCEC
Procedure: Cell viability study of MSC, N2a, and HCEC cells with or without the treatment of DNIC–COOH was performed using a Cell Counting Kit-8 (IMT Formosa New Materials Co., Ltd., Taiwan) according to the manufacturer’s protocol. Briefly, cells were seeded into a 96-well plate at a density of 4 × 10^3 cells/well for MSC, 1 × 10^4 cells/well for N2a, and 8 × 10^3 cells/well for HCEC, respectively, and incubated overnight. On the next day, cells were treated with DNIC–COOH at different concentrations and incubated for 24 h. The culture medium was then removed before the cells were washed with DPBS. After addition of fresh medium containing CCK-8 solution to the cells and incubation for 1–3 h, the absorbance at 450 nm was then measured on a microplate reader (SpectraMax iD3, Molecular Devices, San Jose, CA) with a reference wavelength of 650 nm. Three independent experiments were executed, and the results were represented as mean ± SEM% (n = 3) with the untreated cells (control) as 100% viability. Cell viability studies of MSC/N2a/HCEC cells (1) with the treatment of DNIC–COOMe for 24 h, (2) with the treatment of NEM for 0.5 h, (3) with the treatment of chlorpromazine (CPZ; TCI) for 0.5 h, (4) with the treatment of methyl-β-cyclodextrin (MβCD; Thermo Fisher Scientific) for 0.5 h, (5) with the treatment of genistein (Alfa Chemistry) for 0.5 h, (6) with the sequential treatments of ODQ for 1 h and DNIC–COOH for 3 h (MSC)/10 h (N2a)/6 h (HCEC), and (7) with the cotreatment of PTIO and DNIC–COOH for 3 h (MSC)/10 h (N2a)/6 h (HCEC), respectively, were performed in a similar manner. In addition to CCK-8 assay, a live/dead staining was performed using a ViaQuant Viability/Cytotoxicity Kit (GeneCopoeia, Rockville, MD) according to the manufacturer’s instruction.

[1] = Log D7.4 / Log P by n-octanol partitioning (UV–vis); format: physicochemical; details: for Log D7.4: PBS (pH 7.4)/n-octanol
Procedure: PBS (pH 7.4) and n-octanol were fully degassed before use. After adding 20 μL of 100 mM stock solution of DNIC–COOH in DMSO to 19.98 mL of PBS (pH 7.4), 2 mL of this 100 μM DNIC–COOH solution was added with 2 mL of n-octanol. This mixture solution was vortexed thoroughly for 30 s and incubated until the two solutions were separated. UV–vis spectra of DNIC–COOH in PBS (pH 7.4) and n-octanol were measured in order to determine Log D7.4 using the equation shown below:[96] [drawing 1] AO is the A362 in n-octanol, and APBS is the A362 in PBS (pH 7.4) after partitioning. Log D7.4 for DNIC–COOMe was determined in a similar manner. On the other hand, the Log P value for DNIC–COOH was measured based on its distribution in ddH2O and n-octanol using a similar procedure.[97],[98]

cGMP = experiment: DNIC-induced cGMP formation in MSC (confocal immunofluorescence); format: cell-based, human; details: 100 μM DNIC–COOH or 2.5 μM DNIC–COOMe, 2 h
Procedure: The MSC cells were plated on a cover glass (18 mm in diameter) loaded into a 24-well plate at a density of 1.7 × 10^3 cells/well until the desired confluency was reached. After the culture media were removed, 100 μM of DNIC–COOH (or 2.5 μM of DNIC–COOMe) was added to the cell culture and incubated for 2 h. The culture media were removed before the MSC cells were washed three times with PBS, whereas the washed MSC cells were further fixed with 4% paraformaldehyde (PFA) solution for 15 min at room temperature. After the PFA solution was removed, the MSC cells were washed twice with PBS for 3 min and permeabilized using 0.1% Triton X-100 (in PBS) at room temperature for 4 min. Subsequently, the MSC cells were washed twice with PBS for 3 min and incubated with a blocking buffer (2.5% BSA in PBS) at room temperature for 30 min. Then, the MSC cells were incubated with primary antibody solution (1:1000 for rabbit anti-cGMP antibody, purchased from Biorbyt, Cambridge, U.K.) at room temperature for 1 h before the MSC cells were washed three times with PBS for 3 min. Cover glasses containing the fixed MSC cells were mounted onto a microscope slide loaded with Fluoroshield mounting medium with DAPI to stain the nuclei before the optical images were captured using a confocal imaging system (Leica TCS-SP-X AOBS).

| SMILES | biocompatibility in comparison with DNIC–COOMe (MSC/N2a/HCEC; MSC/N2a/HCEC) | effect on cell viability (MSC/N2a/HCEC) | Log D7.4 [1] | Log P ([1]; ddH2O/n-octanol) | formation of cGMP (cGMP) |
| --- | --- | --- | --- | --- | --- |
| O=[N][Fe]1([N]=O)[SH](CCC(=O)O)[Fe]([N]=O)([N]=O)[SH]1CCC(=O)O (centres unmarked) [DNIC–COOH, [(NO)2Fe(μ-SCH2CH2COOH)2Fe(NO)2]] | improved biocompatibility | dose-dependent cell-proliferation effect | −2.3 | 1.2 | elevated formation of cGMP |
| COC(=O)CC[SH]1[Fe]([N]=O)([N]=O)[SH](CCC(=O)OC)[Fe]1([N]=O)[N]=O (centres unmarked) [DNIC–COOMe, [(NO)2Fe(μ-SCH2CH2COOCH3)2Fe(NO)2]] | – | dose-dependent cell-proliferation effect | 1.0 | – | elevated formation of cGMP |
